Test results taken from PMC9354932, “Heme Interferes With Complement Factor I-Dependent Regulation by Enhancing Alternative Pathway Activation” (Frontiers in Immunology, 2022).

Target: T1, factor I (FI) (Homo sapiens, UniProt P05156)
T1 construct: gene CFI; purified human complement factor I, commercial (CompTech); mature heavy and light chains of one precursor; immobilised on CM5 chip for SPR
T1 sequence (P05156 19-335): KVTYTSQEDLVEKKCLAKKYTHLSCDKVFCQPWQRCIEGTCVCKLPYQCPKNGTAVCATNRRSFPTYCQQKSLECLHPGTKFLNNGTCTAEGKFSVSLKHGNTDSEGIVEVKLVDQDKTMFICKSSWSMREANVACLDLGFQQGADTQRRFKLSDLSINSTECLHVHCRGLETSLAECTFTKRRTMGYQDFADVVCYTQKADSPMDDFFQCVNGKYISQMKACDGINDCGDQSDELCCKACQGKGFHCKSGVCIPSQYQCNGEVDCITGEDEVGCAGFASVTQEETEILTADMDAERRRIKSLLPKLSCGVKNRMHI
T1 sequence (P05156 340-583): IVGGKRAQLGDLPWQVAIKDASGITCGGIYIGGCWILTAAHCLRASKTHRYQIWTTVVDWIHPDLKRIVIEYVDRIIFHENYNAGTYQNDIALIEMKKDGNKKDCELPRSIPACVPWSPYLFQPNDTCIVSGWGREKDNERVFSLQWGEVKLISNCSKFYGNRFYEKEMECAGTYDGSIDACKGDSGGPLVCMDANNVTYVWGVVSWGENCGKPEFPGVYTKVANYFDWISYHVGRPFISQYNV
Assay: SPR (Biacore […]), factor I immobilised on CM5 chip
Assay type: binding
Settings: read-out: KD (apparent)

**Q.** For `C=CC1=C(C)C2=Cc3c(C=C)c(C)c4[n]3[Fe]([Cl])[n]3c(c(C)c(CCC(=O)O)c3=CC3=NC(=C4)C(C)=C3CCC(=O)O)=CC1=N2` [heme], which Kd is on record?
**A.** 11.5 µM
